Measurements as given in patent publication US20180171411A1, “GFRalpha1 AS A BIOMARKER FOR CISPLATIN-INDUCED CHEMORESISTANCE AND METASTASIS” (THE BOARD OF REGENTS OF THE UNIVERSITY OF TEXAS SYSTEM, priority 2015, published 2018).

Experiments:
[1] = test system: GFRα1-overexpressing MG-63 clone #4; experiment: Colony-forming assay in the presence of cisplatin; type: cell-based, human; conditions: cisplatin 20 μM 10 days; 3-MA (10 μM), Baf (100 nM), CQ (30 μg/ml)
Source text: FIG. 3. […] Scale bar, 20 μm. […] Scale bar, 20 μm. […] Scale bar, 20 μm.

[2] = test system: GDNF mRNA in MG-63 and U-2 OS cells; experiment: PCR of GDNF mRNA expression after cisplatin; type: cell-based, human; conditions: 10 and 20 μM of cisplatin, 24 h
Description: FIG. 7. GFRα1-mediated chemoresistance of osteosarcoma cells is independent of GDNF. (a) Quantitative real-time PCR of GDNF mRNA expression after cisplatin treatment. MG-63 and U-2 OS cells were treated with different concentrations of cisplatin for 24 h. (b-d) Cell viability was measured using the WST-1 assay. The values are represented as a mean±s.d.m. (n=3). (b) MG-63 cells were treated with PBS or GDNF (50 ng/ml) for 24 h. (c) Control and GFRα1-overexpressing cells were cultured and treated with PBS or GDNF for 24 h. (d) Control and GFRα1-overexpressing cells were treated and cultured with PBS only, Cisplatin, or Cisplatin+GDNF (50 ng/ml) for 24 h, respectively. […] Representative images of RFP-LC3 and GFP-LC3 puncta. Scale bar, 20 μm. Control and GFRα1-overexpressing MG-63 cells were transiently transfected with an RFP-GFP tandem fluorescent-tagged LC3 (RFP-GFP-LC3) and then treated with PBS (top two panels) or cisplatin (20 μM; bottom two panes) for 24 h. […] (f) Quantitative analysis of the number of yellow puncta and the number of RFP-LC3 puncta in the combined images of Control and GFRα1-overexpressing MG-63 cells treated with GDNF. […]
Semi-quantitative RT-PCR. […]

[3] = test system: cytoplasmic HMGB1 in MG-63/GFRα1 tumors; experiment: Immunofluorescence of HMGB1 in xenograft tumors; type: in vivo, mouse; conditions: tumors of MG-63/GFRα1 cell grafted mice
Description: FIG. 5. GFRα1-mediated autophagy promotes chemoresistance and tumor growth in vivo. (a) BALB/c nude mice (n =40) were injected with MG-63 cells that were transfected with either control or GFRα1 expressing vector. Tumor volume was measured every 3 or 4 days. Data are shown as mean±SEM. ** p<0.05. (b) BALB/c nude mice (n=20) were injected with MG-63 cells that were transfected with either control or GFRα1 shRNA. Tumor volume was measured every 3 or 4 days. Data are shown as mean±SEM. ** p<0.05. (c) Tumors that were generated from mice injected with MG-63 cells containing GFRα1 expressing vector were directly injected with PBS, CQ, cisplatin, or cisplatin+CQ. Tumor volume was measured every 4 days. […] Right, quantitative analysis of percentage of cytoplasmic HMGB1-positive cells in HMGB1-positive tumors. […] Right, quantitative analysis of percentage of TUNEL-positive cells in HMGB1-positive tumors. […]
Immunohistochemistry. […] For immunofluorescence, immunohistochemistry of patient tissues and mouse tumors are incubated with the Alexa Fluor 488- and 647-conjugated secondary antibodies (Invitrogen), and nuclei were counterstained with DAPI (Sigma-Aldrich) Immunofluorescence was detected by confocal microscopy. […] Thus, marked plus (+) was considered to be positive immunoreactivity, while that minus (−) was considered to be negative immunoreactivity (not detected). […]

Structure (SMILES) | number of colonies [1] | GDNF mRNA expression [2] | HMGB1 expression localized in the cytoplasm [3]
Cn1cnc(N)c2ncnc1-2 [3-MA, 3-methyladenine] | effectively reduced |  | 
N.N.[Cl][Pt][Cl] [cisplatin, Cis-Diamineplatinum(II) dichloride] |  | increase | significant increase
